Data as given in patent publication US20260234123A1, “Inhibitors of NLRP3” (Mwyngil Therapeutics, Inc., priority 2023, published 2026).
pEC50: −log10 of the molar value.

Test system: IL1b release THP-1
Test: IL1b release THP-1 (ELISA)
Type: cell-based
Settings: Homo sapiens; average EC50; THP-1 cells primed with 1 μg/ml LPS 4 h, stimulated with 10 μM Nigericin 2 h; IL-1β in supernatant by ELISA; read-out: THP 1 IL 1b, EC50
How it was run: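 THP-1 cells in serum-free medium were primed with 1 μg/ml LPS for 4 h, then stimulated with 10 μM nigericin for 2 h at 37° C., 5% CO2. IL-1β in supernatant measured by ELISA; EC50 values binned into A–E ranges.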

pEC50 | Structure (SMILES)
5.30 to 6.00 | CN1CCC[C@@H](Nc2nnc(-c3ccc(C(F)(F)F)cc3NS(C)(=O)=O)c3c2CCCC3)C1 [Compound 50, (R)—N-(2-(4-((1-Methylpiperidin-3-yl)amino)-5,6,7,8-tetrahydrophthalazin-1-yl)-5-(trifluoromethyl)phenyl) methane sulfonamide]
> 6.30 | CCN1CCC[C@@H](Nc2nnc(-c3ccc(C(F)(F)F)cc3N)cc2C)C1 [Compound 131, 6-[2-amino-4-(trifluoromethyl)phenyl]-N-[(3R)-1-ethyl-3-piperidyl]-4-methyl-pyridazin-3-amine]
5.30 to 6.00 | Cc1cc(N[C@@H]2CCCNC2)nnc1-c1ccc(C(F)(F)F)cc1NS(C)(=O)=O [Compound 71, N-[2-[4-methyl-6-[[(3R)-3-piperidyl]amino]pyridazin-3-yl]-5-(trifluoromethyl)phenyl]methanesulfon-amide]
5.30 to 6.00 | CCN1CCC[C@@H](Nc2cc(C)c(-c3ccc(C(F)(F)F)cc3NS(=O)(=O)C(C)C)nn2)C1 [Compound 70, N-[2-[6-[[(3R)-1-ethyl-3-piperidyl]amino]-4-methyl-pyridazin-3-yl]-5-(trifluoromethyl)phenyl]propane-2-sulfonamide]
> 6.30 | CCN1CCC[C@@H](Nc2nnc(-c3ccc(C(F)(F)F)cc3NS(C)(=O)=O)cc2C)C1 [Compound 8, (R)—N-(2-(6-((1-Ethylpiperidin-3-yl)amino)-5-methylpyridazin-3-yl)-5-(trifluoromethyl)phenyl) methanesulfonamide]
> 6.30 | Cc1cc(N[C@@H]2CCCN(C(C)C)C2)nnc1-c1ccc(C(F)(F)F)cc1NC(=O)C(F)F [Compound 113]
4.52 to 5.30 | Cc1c(N[C@@H]2CCCN(C)C2)nnc(-c2ccc(C(F)(F)F)c3nn[nH]c23)c1C [Compound 22, (R)-4,5-dimethyl-N-(1-methylpiperidin-3-yl)-6-(4-(trifluoromethyl)-1H-benzo[d][1,2,3]triazol-7-yl)pyridazin-3-amine]
5.30 to 6.00 | Cc1cc(-c2ccc(C(F)(F)F)cc2NS(C)(=O)=O)nnc1N[C@@H]1CCCNC1 [Compound 67, (R)—N-(2-(5-methyl-6-(piperidin-3-ylamino)pyridazin-3-yl)-5-(trifluoromethyl)phenyl) methanesulfonamide]
5.30 to 6.00 | CN1CCC[C@@H](Nc2cc(C(F)(F)F)c(-c3ccc(C(F)(F)F)cc3NS(C)(=O)=O)nn2)C1 [Compound 51, N-[2-[6-[[(3R)-1-methyl-3-piperidyl]amino]-4-(trifluoromethyl)pyridazin-3-yl]-5-(trifluoromethyl)phenyl]methanesulfon-amide]
6.00 to 6.30 | Cc1cc(-c2ccc(C(F)(F)F)cc2Nc2ccccc2)nnc1N[C@@H]1CCCN(C(C)C)C1 [Compound 121, 6-[2-anilino-4-(trifluoromethyl)phenyl]-N-[(3R)-1-isopropyl-3-piperidyl]-4-methyl-pyridazin-3-amine]
5.30 to 6.00 | Cc1cc(C(F)(F)F)cc(NS(C)(=O)=O)c1-c1ccc(N[C@@H]2CCCN(C)C2)nn1 [Compound 1, (R)—N-(3-methyl-2-(6-((1-methylpiperidin-3-yl)amino)pyridazin-3-yl)-5-(trifluoromethyl)phenyl) methanesulfonamide]
5.30 to 6.00 | Cc1cc(N[C@@H]2CCCN(CCC(C)(C)O)C2)nnc1-c1ccc(C(F)(F)F)cc1NS(C)(=O)=O [Compound 55, (R)—N-(2-(6-((1-(3-Hydroxy-3-methylbutyl)piperidin-3-yl)amino)-4-methylpyridazin-3-yl)-5-(trifluoromethyl)phenyl) methanesulfonamide]
> 6.30 | CCN1CCC[C@@H](Nc2nnc(-c3ccc(C(F)(F)F)cc3NS(C)(=O)=O)c3c2CCCC3)C1 [Compound 37, (R)—N-(2-(4-((1-Ethylpiperidin-3-yl)amino)-5,6,7,8-tetrahydrophthalazin-1-yl)-5-(trifluoromethyl)phenyl) methane sulfonamide]
> 6.30 | CCN1CCC[C@@H](Nc2cc(C3CC3)c(-c3ccc(C(F)(F)F)cc3NS(C)(=O)=O)nn2)C1 [Compound 43, (R)—N-(2-(4-Cyclopropyl-6-((1-ethylpiperidin-3-yl)amino)pyridazin-3-yl)-5-(trifluoromethyl)phenyl) methanesulfonamide]
6.00 to 6.30 | CC(=O)Nc1cc(C(F)(F)F)ccc1-c1nnc(N[C@@H]2CCCN(C(C)C)C2)cc1C [Compound 136, N-[2-[6-[[(3R)-1-isopropyl-3-piperidyl]amino]-4-methyl-pyridazin-3-yl]-5-(trifluoromethyl)phenyl]acetamide]
